Reference: BindingDB's records for doi:10.1016/j.bmcl.2003.09.065 (Northwestern University, 2003)

Experiment: KI for pyridoxal 5'-phosphate (PLP)-dependent Gamma-amino-N-butyrate transaminase at pH 7.4

Compound `NC1C=C(C(=O)O)OC1` (stereo unspecified) [4-Amino-4,5-dihydro-furan-2-carboxylic acid anion] has a Ki of 6.3 µM.
